Source: US12448392B2, “Spiropiperidine derivatives” (89BIO LTD, priority 2016, dated 2025)
pIC50: −log10 of the molar value. Counter-ions that a name gives are not always drawn. Like-named read-outs stand apart in the source and are kept apart here.

Columns and labels:
[1] = non-specific irreversible FASN inhibitors; cited from earlier work
[2] = test system: viral replication (Flaviviridae family); conditions: inhibition of FASN by small molecule inhibitors; cited from earlier work
[3] = target: T1, recombinant human baculovirus-expressed GST-tagged FASN (Homo sapiens, UniProt P49327); assay: biochemical
T1 construct: GST
T1 sequence (P49327 whole entry): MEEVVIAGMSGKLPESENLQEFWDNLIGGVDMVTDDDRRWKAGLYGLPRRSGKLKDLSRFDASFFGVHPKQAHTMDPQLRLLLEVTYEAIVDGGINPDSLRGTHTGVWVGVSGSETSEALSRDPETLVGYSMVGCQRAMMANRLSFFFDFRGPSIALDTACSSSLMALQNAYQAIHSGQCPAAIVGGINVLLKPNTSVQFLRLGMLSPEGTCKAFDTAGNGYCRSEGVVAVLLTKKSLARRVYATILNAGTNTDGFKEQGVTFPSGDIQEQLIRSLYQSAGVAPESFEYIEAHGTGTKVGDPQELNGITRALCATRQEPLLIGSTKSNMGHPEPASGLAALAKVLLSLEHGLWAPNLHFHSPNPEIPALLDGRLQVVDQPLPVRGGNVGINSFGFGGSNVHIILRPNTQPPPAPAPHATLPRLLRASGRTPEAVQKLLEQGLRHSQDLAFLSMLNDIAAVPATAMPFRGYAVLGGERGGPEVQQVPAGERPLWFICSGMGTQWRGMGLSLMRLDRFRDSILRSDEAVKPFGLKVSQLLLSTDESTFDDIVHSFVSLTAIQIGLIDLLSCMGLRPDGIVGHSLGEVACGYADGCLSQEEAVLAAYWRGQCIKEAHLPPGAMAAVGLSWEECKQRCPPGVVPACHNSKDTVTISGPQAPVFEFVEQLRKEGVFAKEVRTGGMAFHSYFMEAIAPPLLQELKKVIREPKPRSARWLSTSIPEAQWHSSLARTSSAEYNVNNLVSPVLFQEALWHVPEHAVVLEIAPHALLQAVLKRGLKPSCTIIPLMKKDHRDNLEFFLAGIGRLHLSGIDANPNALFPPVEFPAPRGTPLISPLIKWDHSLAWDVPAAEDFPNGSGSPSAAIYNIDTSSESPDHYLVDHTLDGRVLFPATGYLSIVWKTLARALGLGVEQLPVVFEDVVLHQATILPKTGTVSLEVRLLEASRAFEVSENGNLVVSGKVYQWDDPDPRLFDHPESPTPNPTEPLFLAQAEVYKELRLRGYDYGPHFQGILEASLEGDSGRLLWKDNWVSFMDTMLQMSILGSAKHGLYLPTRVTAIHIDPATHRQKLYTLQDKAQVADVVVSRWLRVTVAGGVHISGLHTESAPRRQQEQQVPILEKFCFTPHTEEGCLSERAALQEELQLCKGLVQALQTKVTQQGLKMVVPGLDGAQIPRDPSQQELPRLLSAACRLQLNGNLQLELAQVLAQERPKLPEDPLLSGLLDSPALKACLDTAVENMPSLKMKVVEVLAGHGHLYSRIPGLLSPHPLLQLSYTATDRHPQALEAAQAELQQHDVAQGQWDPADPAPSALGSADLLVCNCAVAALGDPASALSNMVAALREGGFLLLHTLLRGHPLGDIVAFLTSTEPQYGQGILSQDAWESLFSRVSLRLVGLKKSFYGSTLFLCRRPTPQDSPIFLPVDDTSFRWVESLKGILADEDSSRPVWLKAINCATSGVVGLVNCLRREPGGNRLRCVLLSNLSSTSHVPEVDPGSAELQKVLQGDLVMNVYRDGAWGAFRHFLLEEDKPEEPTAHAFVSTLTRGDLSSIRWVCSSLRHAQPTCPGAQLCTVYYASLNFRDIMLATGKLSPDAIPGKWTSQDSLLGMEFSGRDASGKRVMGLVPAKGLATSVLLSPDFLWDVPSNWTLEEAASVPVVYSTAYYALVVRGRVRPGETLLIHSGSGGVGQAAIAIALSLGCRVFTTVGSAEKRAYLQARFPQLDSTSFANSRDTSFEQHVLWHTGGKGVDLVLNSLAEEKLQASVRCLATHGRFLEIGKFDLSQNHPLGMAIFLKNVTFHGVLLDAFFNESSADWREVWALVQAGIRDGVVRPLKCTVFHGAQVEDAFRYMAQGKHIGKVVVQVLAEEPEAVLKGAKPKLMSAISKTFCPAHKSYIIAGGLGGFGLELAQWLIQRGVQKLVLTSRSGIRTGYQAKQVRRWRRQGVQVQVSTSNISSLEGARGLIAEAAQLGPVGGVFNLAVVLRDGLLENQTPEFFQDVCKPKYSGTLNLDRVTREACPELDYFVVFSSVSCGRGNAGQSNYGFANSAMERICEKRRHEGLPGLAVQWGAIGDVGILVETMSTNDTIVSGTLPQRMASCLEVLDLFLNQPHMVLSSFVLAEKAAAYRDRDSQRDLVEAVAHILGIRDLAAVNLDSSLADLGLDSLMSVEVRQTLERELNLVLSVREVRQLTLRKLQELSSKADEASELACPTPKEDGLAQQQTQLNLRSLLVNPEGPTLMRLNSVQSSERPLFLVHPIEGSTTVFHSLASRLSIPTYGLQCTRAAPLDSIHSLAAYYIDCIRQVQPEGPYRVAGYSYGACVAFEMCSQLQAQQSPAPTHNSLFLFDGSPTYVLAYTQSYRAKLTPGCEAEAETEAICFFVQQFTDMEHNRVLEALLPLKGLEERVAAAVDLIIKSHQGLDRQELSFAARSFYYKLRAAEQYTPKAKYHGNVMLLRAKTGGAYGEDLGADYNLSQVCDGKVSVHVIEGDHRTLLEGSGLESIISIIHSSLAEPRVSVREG

[4] = 5 nM FASN, 150 μM NADPH, 10 μM acetyl-CoA, 25 μM malonyl-CoA, 90 minutes incubation, read-out: IC50 data for Compounds of Formula I, Activity

In the case of `C/C=C/C/C=C/CCC(=O)[C@H]1O[C@H]1C(N)=O` [Cerulenin], the “brain levels of orexigenic neuropeptides” value [1] is listed as “decrease brain levels of orexigenic neuropeptides”, the food intake [1] is listed as “decrease food intake” and the “inhibition of viral replication” value [2] is listed as “strong inhibition of viral replication”.

In the case of `C=C1C(=O)OC(CCCCCCCC)C1C(=O)O` (stereo not drawn) [Example C-75], the “brain levels of orexigenic neuropeptides” value [1] is given as “decrease brain levels of orexigenic neuropeptides” and the food intake [1] is given as “decrease food intake”.

`O=C(C1CC1)N1CCC2(CCc3cc(-c4ccccn4)ccc3O2)CC1` [Example 216, Cyclopropyl-[6-(2-pyridyl)spiro[chromane-2,4′-piperidine]-1′-yl]methanone, HCl] showed a pIC50 [3, 4] of 5.00 to 6.00.

In the case of `CCCCCCCCCCC[C@@H](C[C@@H]1OC(=O)[C@H]1CCCCCC)OC(=O)[C@H](CC(C)C)NC=O` [Orlistat], the “inhibition of viral replication” value [2] is listed as “strong inhibition of viral replication”.

For `Cc1c(-c2ccc3c(c2)CCC2(CCN(C(=O)NO)CC2)O3)ccc2cccnc12` [Example 105, 6-(8-methyl-7-quinolyl)spiro[chromane-2,4′-piperidine]-1′-carbohydroxamic acid], the pIC50 [3, 4] was 6.00 to 7.00.

`CCC(=O)N1CCC2(CC1)OCc1cc(-c3cccnc3)ccc1O2` [Example 224, 1-[6-(3-Pyridyl)spiro[4H-1,3-benzodioxine-2,4′-piperidine]-1′-yl]propan-1-one, HCl] gave a pIC50 [3] of 5.00 to 6.00.

`Cc1c(-c2ccc3c(c2)CCC2(CCN(C(=O)NOC(C)C)CC2)O3)ccc2cccnc12` [Example 103, N-Isopropoxy-6-(8-methyl-7-quinolyl)spiro[chromane-2,4′-piperidine]-1′-carboxamide] gave a pIC50 [3, 4] of 7.00 to 9.00.

`COc1c(-c2ccc3c(c2)CC2(CCN(C(=O)NOC4CCCCO4)CC2)O3)ccc2cccnc12` (stereo not drawn) [Example 168, 5-(8-Methoxy-7-quinolyl)-N-tetrahydropyran-2-yloxy-spiro[3H-benzofuran-2,4′-piperidine]-1′-carboxamide] showed a pIC50 [3, 4] of 5.00 to 6.00.

With `Cc1c(-c2ccc3c(c2)CC2(CCN(C(N)=O)CC2)O3)ccc2ccnn12` [Example 164, 5-(7-Methylpyrazolo[1,5-a]pyridin-6-yl)spiro[3H-benzofuran-2,4′-piperidine]-1′-carboxamide] the pIC50 [3, 4] was 5.00 to 6.00.

Molecule `COc1c(-c2ccc3c(c2)CCC2(CCN(C(N)=O)CC2)O3)ccc2cccnc12` [Example 175, 6-(8-Methoxy-7-quinolyl)spiro[chromane-2,4′-piperidine]-1′-carboxamide] has a pIC50 [3, 4] of 7.00 to 9.00.

With `CCONC(=O)N1CCC2(CC1)OCc1cc(-c3cc4ccccc4cn3)ccc1O2` [Example 145, N-Ethoxy-6-(3-isoquinolyl)spiro[4H-1,3-benzodioxine-2,4′-piperidine]-1′-carboxamide] the pIC50 [3] was 7.00 to 9.00.

With `Cc1c(-c2ccc3c(c2)CC2(CCN(C(=O)NOC4CCCCO4)CC2)O3)ccc2ccnn12` (stereo not drawn) [Example 171, 5-(7-Methylpyrazolo[1,5-a]pyridin-6-yl)-N-tetrahydropyran-2-yloxy-spiro[3H-benzofuran-2,4′-piperidine]-1′-carboxamide] the pIC50 [3, 4] was 5.00 to 6.00.

Work on `CC(C)(C)OC(=O)N1CCC2(CC1)OCc1cc(-c3cnc4sccc4c3)ccc1O2` [Example 84, tert-Butyl 6-thieno[2,3-b]pyridin-5-ylspiro[4H-1,3-benzodioxine-2,4′-piperidine]-1′-carboxylate] yielded a pIC50 [3] of 5.00 to 6.00.

`Cc1c(-c2ccc3c(c2)CCC2(CCN(C(N)=O)CC2)O3)ccc2ccnn12` [Example 114, 6-(7-Methylpyrazolo[1,5-a]pyridin-6-yl)spiro[chromane-2,4′-piperidine]-1′-carboxamide] showed a pIC50 [3, 4] of 7.00 to 9.00.

Work on `NC(=O)N1CCC2(CCc3cc(-c4cc5ccccc5o4)ccc3O2)CC1` [Example 235, 6-(Benzofuran-2-yl)spiro[chromane-2,4′-piperidine]-1′-carboxamide] yielded a pIC50 [3, 4] of 5.00 to 6.00.

`CCOC(=O)N1CCC2(CC1)OCc1cc(-c3ccc4cnc(C)cc4c3)ccc1O2` [Example 200, Ethyl 6-(3-methyl-6-isoquinolyl)spiro[4H-1,3-benzodioxine-2,4′-piperidine]-1′-carboxylate] showed a pIC50 [3] of 5.00 to 6.00.

`Cc1c(-c2ccc3c(c2)COC2(CCN(C(=O)NOC(C)C)CC2)O3)ccc2ccnn12` [Example 130, N-Isopropoxy-6-(7-methylpyrazolo[1,5-a]pyridin-6-yl)spiro[4H-1,3-benzodioxine-2,4′-piperidine]-1′-carboxamide] gave a pIC50 [3] of 7.00 to 9.00.

Work on `Cc1c(-c2ccc3c(c2)COC2(CCN(C(N)=O)CC2)O3)ccc2cccnc12` [Example 118, 6-(8-Methyl-7-quinolyl)spiro[4H-1,3-benzodioxine-2,4′-piperidine]-1′-carboxamide] yielded a pIC50 [3] of 7.00 to 9.00.

`Cc1c(-c2ccc3c(c2)C(=O)CC2(CCN(C(N)=O)CC2)O3)ccc2cccnc12` [Example 212, 6-(8-methyl-7-quinolyl)-4-oxo-spiro[chromane-2,4′-piperidine]-1′-carboxamide] showed a pIC50 [3, 4] of 6.00 to 7.00.

`O=C(NO)N1CCC2(CCc3cc(-c4ccc5cccnc5c4Cl)ccc3O2)CC1` [Example 68, 6-(8-Chloro-7-quinolyl)spiro[chromane-2,4′-piperidine]-1′-carbohydroxamic acid] showed a pIC50 [3, 4] of 6.00 to 7.00.

`O=C(NO)N1CCC2(CCc3cc(-c4cc5ccccc5cn4)ccc3O2)CC1` [Example 151, 6-(3-Isoquinolyl)spiro[chromane-2,4′-piperidine]-1′-carbohydroxamic acid] gave a pIC50 [3, 4] of 5.00 to 6.00.

`Cc1c(-c2ccc3c(c2)C(O)CC2(CCN(C(N)=O)CC2)O3)ccc2cccnc12` (stereo not drawn) [Example 213, 4-Hydroxy-6-(8-methyl-7-quinolyl)spiro[chromane-2,4′-piperidine]-1′-carboxamide] gave a pIC50 [3, 4] of 6.00 to 7.00.

For `O=C([C@H]1CCCO1)N1CCC2(CCc3cc(-c4ccccn4)ccc3O2)CC1` [Example 217, [6-(2-Pyridyl)spiro[chromane-2,4′-piperidine]-1′-yl]-[(2R)-tetrahydrofuran-2-yl]methanone, HCl], the pIC50 [3, 4] was 5.00 to 6.00.

Work on `Cc1c(-c2ccc3c(c2F)CCC2(CCN(C(N)=O)CC2)O3)ccc2cccnc12` [Example 243, 5-Fluoro-6-(8-methyl-7-quinolyl)spiro[chromane-2,4′-piperidine]-1′-carboxamide] yielded a pIC50 [3, 4] of 6.00 to 7.00.

`Cn1cnc2cc(-c3ccc4c(c3)CCC3(CCN(C(N)=O)CC3)O4)ccc21` [Example 81, 6-(1-Methylbenzimidazol-5-yl)spiro[chromane-2,4′-piperidine]-1′-carboxamide] gave a pIC50 [3, 4] of 6.00 to 7.00.

With `Cc1c(-c2ccc3c(c2)CCC2(CCN(C(=O)NO)CC2)O3)ccc2ccnn12` [Example 125, 6-(7-Methylpyrazolo[1,5-a]pyridin-6-yl)spiro[chromane-2,4′-piperidine]-1′-carbohydroxamic acid] the pIC50 [3, 4] was 5.00 to 6.00.

In the case of `O=C(NO)N1CCC2(CC1)OCc1cc(-c3cc4ccccc4cn3)ccc1O2` [Example 150, 6-(3-Isoquinolyl)spiro[4H-1,3-benzodioxine-2,4′-piperidine]-1′-carbohydroxamic acid], the pIC50 [3] was 5.00 to 6.00.

In the case of `CCC(=O)N1CCC2(CC1)OCc1cc(-c3ccccn3)ccc1O2` [Example 218, 1-[6-(2-Pyridyl)spiro[4H-1,3-benzodioxine-2,4′-piperidine]-1′-yl]propan-1-one, HCl], the pIC50 [3] was 5.00 to 6.00.

`CONC(=O)N1CCC2(CC1)OCCc1cc(-c3ccc4cccnc4c3C)ccc1O2` [Example 80, N-Methoxy-7-(8-methyl-7-quinolyl)spiro[4,5-dihydro-1,3-benzodioxepine-2,4′-piperidine]-1′-carboxamide] gave a pIC50 [3] of 7.00 to 9.00.

`CC(C)CNC(=O)N1CCC2(CCc3cc(-c4ccc5nccn5c4Cl)ccc3O2)CC1` [Example 177, 6-(5-Chloroimidazo[1,2-a]pyridin-6-yl)-N-isobutyl-spiro[chromane-2,4′-piperidine]-1′-carboxamide] showed a pIC50 [3, 4] of 7.00 to 9.00.
